# Patent US8044052B2, “Biaryl ether urea compounds” (Pfizer Inc., priority 2006, dated 2011)
# Structures can show the parent of a compound that is named as a salt.
# Molecular target: T1, Human FAAH (Homo sapiens, UniProt O00519)
# T1 construct: made in house
# T1 sequence (O00519 1-579): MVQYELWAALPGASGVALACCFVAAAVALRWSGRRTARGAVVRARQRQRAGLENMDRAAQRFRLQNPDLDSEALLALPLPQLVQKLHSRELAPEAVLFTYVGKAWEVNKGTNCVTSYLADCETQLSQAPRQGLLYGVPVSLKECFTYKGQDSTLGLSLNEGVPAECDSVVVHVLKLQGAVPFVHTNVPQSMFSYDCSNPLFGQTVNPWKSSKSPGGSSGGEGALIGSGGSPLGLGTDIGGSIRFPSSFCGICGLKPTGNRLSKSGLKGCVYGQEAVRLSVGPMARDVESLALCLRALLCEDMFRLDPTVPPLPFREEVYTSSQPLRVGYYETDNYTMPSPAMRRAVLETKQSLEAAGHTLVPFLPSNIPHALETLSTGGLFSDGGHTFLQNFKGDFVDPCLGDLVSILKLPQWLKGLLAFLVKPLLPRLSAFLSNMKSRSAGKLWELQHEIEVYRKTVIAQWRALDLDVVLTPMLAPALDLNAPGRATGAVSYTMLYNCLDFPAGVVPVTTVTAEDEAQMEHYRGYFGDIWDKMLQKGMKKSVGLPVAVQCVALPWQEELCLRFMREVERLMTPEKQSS
# Experiment: FAAH assay (glutamate dehydrogenase-coupled, oleamide substrate, absorbance at 340 nm)
# Format: biochemical
# Details: irreversible inhibition, 1-4 nM FAAH, pH 7.4, 30° C., 90 min, read-out: hFAAH kinact/Ki
# Protocol: The FAAH assay was carried out in 384-well clear polystyrene plates in a total volume of 50 μl per well. All percents are by volume. To each well, was placed the reaction mixture (40 μl) containing 1-4 nM FAAH, 50 mM NaPi, pH 7.4, 3 mM α-ketoglutarate, 0.15 mM NADH, 7.5 U/ml glutamate dehydrogenase, 2 mM ADP, 1 mM EDTA, and 0.1% Triton X-100 (The concentration shown for each component is the final concentration in the assay). […] This was immediately followed by the addition of 5 μl oleamide (500 μM) dissolved in 75% EtOH/25% DMSO and the reaction mixture was mixed for 1.5 min. The final concentrations of DMSO and EtOH in the assay were each 7.5%.
# Initial velocity data (V) were obtained from the slopes of the initial progressive curves. They were plotted as a function of substrate concentration and fit to the Michaelis-Menten equation (1) using Prism (GraphPad Software, Inc., San Diego, Calif.) software to obtain Km and Vmax values.
# To obtain potencies of irreversible inhibitors, progressive curves consistent with first order inhibition kinetics (two-step irreversible inhibition mechanism) were fit to equation (2) by nonlinear least squares regressions to determine kobs values at each inhibitor concentration, where [P]t is the absorbance at time t, V0 is a constant related to the steady state rate of the uninhibited reaction, and kobs is the first order rate constant for enzyme inactivation. The inhibitor dissociation constant (Ki) and the first order rate
# [formula] constant of enzyme inactivation at infinite inhibitor concentration (kinact) were then obtained by fitting the kobs vs. [I] curves to equation (3).
row,kinact/KI,Compound
1,1370 M⁻¹ s⁻¹,"O=C(Nc1cccnc1)N1CCC(=Cc2cc(Br)cc(Oc3ccc(C(F)(F)F)cn3)c2)CC1 [Example 62, 4-(3-bromo-5-(5-(trifluoromethyl)pyridin-2-yloxy)benzylidene)-N-(pyridin-3-yl)piperidine-1-carboxamide]"
2,2530 M⁻¹ s⁻¹,"O=C(Nc1cccnn1)N1CCC(=Cc2cc(Br)cc(Oc3ccc(C(F)(F)F)cn3)c2)CC1 [Example 63, 4-(3-bromo-5-(5-(trifluoromethyl)pyridin-2-yloxy)benzylidene)-N-(pyridazin-3-yl)piperidine-1-carboxamide]"
3,417 M⁻¹ s⁻¹,"O=C(Nc1cccnn1)N1CCC(=Cc2cc(Oc3ccc(C(F)(F)F)cn3)cc(C3CC3)c2)CC1 [Example 64, 4-(3-cyclopropyl-5-(5-(trifluoromethyl)pyridin-2-yloxy)benzylidene)-N-(pyridazin-3-yl)piperidine-1-carboxamide]"
4,6710 M⁻¹ s⁻¹,"O=C(Nc1cccnc1)N1CCC(=Cc2cc(F)cc(Oc3ccc(C(F)(F)F)cn3)c2)CC1 [Example 65, 4-(3-fluoro-5-(5-(trifluoromethyl)pyridin-2-yloxy)benzylidene)-N-(pyridin-3-yl)piperidine-1-carboxamide]"
5,1560 M⁻¹ s⁻¹,"O=C(Nc1cccnc1)N1CCC(=C(Br)c2cccc(Oc3ccc(C(F)(F)F)cn3)c2)CC1 [Example 66, 4-(bromo(3-(5-(trifluoromethyl)pyridin-2-yloxy)phenyl)methylene)-N-(pyridin-3-yl)piperidine-1-carboxamide]"
6,5980 M⁻¹ s⁻¹,"CC(=C1CCN(C(=O)Nc2cccnc2)CC1)c1cccc(Oc2ccc(C(F)(F)F)cn2)c1 [Example 67, N-(pyridin-3-yl)-4-(1-(3-(5-(trifluoromethyl)pyridin-2-yloxy)phenyl)ethylidene)piperidine-1-carboxamide]"
7,206 M⁻¹ s⁻¹,"O=C(Nc1cccnc1)N1CCC(=C(c2ccccc2)c2cccc(Oc3ccc(C(F)(F)F)cn3)c2)CC1 [Example 68, 4-(phenyl(3-(5-(trifluoromethyl)pyridin-2-yloxy)phenyl)methylene)-N-(pyridin-3-yl)piperidine-1-carboxamide]"
8,2300 M⁻¹ s⁻¹,"O=C(Nc1cccnc1)N1CCC(=C(F)c2cccc(Oc3ccc(C(F)(F)F)cn3)c2)CC1 [Example 69, 4-(fluoro(3-(5-(trifluoromethyl)pyridin-2-yloxy)phenyl)methylene)-N-(pyridin-3-yl)piperidine-1-carboxamide]"
9,777 M⁻¹ s⁻¹,"COc1ccc(NC(=O)N2CCC(=C(F)c3cccc(Oc4ccc(C(F)(F)F)cn4)c3)CC2)cn1 [Example 71, 4-(fluoro(3-(5-(trifluoromethyl)pyridin-2-yloxy)phenyl)methylene)-N-(6-methoxypyridin-3-yl)piperidine-1-carboxamide]"
10,681 M⁻¹ s⁻¹,"Cc1ccnc(Oc2cccc(C=C3CCN(C(=O)Nc4cccnc4)CC3)c2)c1 [Example 72, 4-{3-[(4-methylpyridin-2-yl)oxy]benzylidene}-N-pyridin-3-ylpiperidine-1-carboxamide]"
11,963 M⁻¹ s⁻¹,"Cc1ccnc(Oc2cccc(C=C3CCN(C(=O)Nc4cccnn4)CC3)c2)c1 [Example 73, 4-{3-[(4-methylpyridin-2-yl)oxy]benzylidene}-N-pyridazin-3-ylpiperidine-1-carboxamide]"
12,3620 M⁻¹ s⁻¹,"O=C(Nc1cnoc1)N1CCC(=Cc2cccc(Oc3ccc(C(F)(F)F)cn3)c2)CC1 [Example 75, N-isoxazol-4-yl-4-(3-{[5-(trifluoromethyl)pyridin-2-yl]oxy}benzylidene)piperidine-1-carboxamide]"
13,339 M⁻¹ s⁻¹,"Cn1ccc(NC(=O)N2CCC(=Cc3cccc(Oc4ccc(C(F)(F)F)cn4)c3)CC2)n1 [Example 77, N-(1-methyl-1H-pyrazol-3-yl)-4-(3-{[5-(trifluoromethyl)pyridin-2-yl]oxy}benzylidene)piperidine-1-carboxamide]"
14,2100 M⁻¹ s⁻¹,"Cn1ncc(NC(=O)N2CCC(=Cc3cccc(Oc4ccc(C(F)(F)F)cn4)c3)CC2)n1 [Example 78, N-(2-methyl-2H-1,2,3-triazol-4-yl)-4-(3-{[5-(trifluoromethyl)pyridin-2-yl]oxy}benzylidene)piperidine-1-carboxamide]"
15,4880 M⁻¹ s⁻¹,"O=C(Nc1ncccc1O)N1CCC(=Cc2cccc(Oc3ccc(C(F)(F)F)cn3)c2)CC1 [Example 79, N-(3-hydroxypyridin-2-yl)-4-(3-{[5-(trifluoromethyl)pyridin-2-yl]oxy}benzylidene)piperidine-1-carboxamide trifluoroacetate]"
16,353 M⁻¹ s⁻¹,"CCc1cc(NC(=O)N2CCC(=Cc3cccc(Oc4ccc(C(F)(F)F)cn4)c3)CC2)[nH]n1 [Example 80, N-(3-ethyl-1H-pyrazol-5-yl)-4-(3-{[5-(trifluoromethyl)pyridin-2-yl]oxy}benzylidene)piperidine-1-carboxamide trifluoroacetate]"
17,1010 M⁻¹ s⁻¹,"CCn1ncnc1NC(=O)N1CCC(=Cc2cccc(Oc3ccc(C(F)(F)F)cn3)c2)CC1 [Example 81, N-(1-ethyl-1H-1,2,4-triazol-5-yl)-4-(3-{[5-(trifluoromethyl)pyridin-2-yl]oxy}benzylidene)piperidine-1-carboxamide trifluoroacetate]"
18,979 M⁻¹ s⁻¹,"O=C(Nc1cccc(CO)c1)N1CCC(=Cc2cccc(Oc3ccc(C(F)(F)F)cn3)c2)CC1 [Example 82, N-[3-(hydroxymethyl)phenyl]-4-(3-{[5-(trifluoromethyl)pyridin-2-yl]oxy}benzylidene)piperidine-1-carboxamide]"
19,356 M⁻¹ s⁻¹,"O=C(Nc1cc(CO)ccn1)N1CCC(=Cc2cccc(Oc3ccc(C(F)(F)F)cn3)c2)CC1 [Example 83, N-[4-(hydroxymethyl)pyridin-2-yl]-4-(3-{[5-(trifluoromethyl)pyridin-2-yl]oxy}benzylidene)piperidine-1-carboxamide trifluoroacetate]"
20,5590 M⁻¹ s⁻¹,"O=C(Nc1ccc(Cl)nn1)N1CCC(=Cc2cccc(Oc3ccc(C(F)(F)F)cn3)c2)CC1 [Example 84, N-(6-chloropyridazin-3-yl)-4-(3-{[5-(trifluoromethyl)pyridin-2-yl]oxy}benzylidene)piperidine-1-carboxamide]"
21,1540 M⁻¹ s⁻¹,"O=C(Nc1cccnn1)N1CCC(=Cc2cccc(Oc3ccc(N4CCCC4)cn3)c2)CC1 [Example 85, 4-(3-(5-(pyrrolidin-1-yl)pyridin-2-yloxy)benzylidene)-N-(pyridazin-3-yl)piperidine-1-carboxamide]"
22,856 M⁻¹ s⁻¹,"O=C(Nc1cccnc1)N1CCC(=Cc2cccc(Oc3ccc(N4CCCC4)cn3)c2)CC1 [Example 86, 4-(3-(5-(pyrrolidin-1-yl)pyridin-2-yloxy)benzylidene)-N-(pyridin-3-yl)piperidine-1-carboxamide]"
23,1840 M⁻¹ s⁻¹,"O=C(Nc1cccnn1)N1CCC(=Cc2cccc(Oc3ccc(N4CCC4)cn3)c2)CC1 [Example 87, 4-(3-(5-(azetidin-1-yl)pyridin-2-yloxy)benzylidene)-N-(pyridazin-3-yl)piperidine-1-carboxamide]"
24,3580 M⁻¹ s⁻¹,"O=C(Nc1cccnc1)N1CCC(=Cc2cccc(Oc3ccc(N4CCC4)cn3)c2)CC1 [Example 88, 4-(3-(5-(azetidin-1-yl)pyridin-2-yloxy)benzylidene)-N-(pyridin-3-yl)piperidine-1-carboxamide]"
25,6450 M⁻¹ s⁻¹,"C#CCCCOc1ccc(Oc2cccc(C=C3CCN(C(=O)Nc4cccnc4)CC3)c2)nc1 [Example 89, 4-(3-(5-(pent-4-ynyloxy)pyridin-2-yloxy)benzylidene)-N-(pyridin-3-yl)piperidine-1-carboxamide]"
26,7600 M⁻¹ s⁻¹,"C#CCCCOc1ccc(Oc2cccc(C=C3CCN(C(=O)Nc4cccnn4)CC3)c2)nc1 [Example 90, 4-(3-(5-(pent-4-ynyloxy)pyridin-2-yloxy)benzylidene)-N-(Pyridazin-3-yl)piperidine-1-carboxamide]"
27,636 M⁻¹ s⁻¹,"O=C(Nc1cccnn1)N1CCC(=Cc2cccc(Oc3ccccc3)n2)CC1 [Example 91, 4-((6-phenoxypyridin-2-yl)methylene)-N-(pyridazin-3-yl)piperidine-1-carboxamide]"
28,894 M⁻¹ s⁻¹,"O=C(Nc1cccnc1)N1CCC(=Cc2cccc(Oc3ccccc3)n2)CC1 [Example 92, 4-((6-phenoxypyridin-2-yl)methylene)-N-(pyridin-3-yl)piperidine-1-carboxamide]"
